Experiment: passive permeability, PAMPA, ADME assay (AID 1508612)
Conditions: pH 7.4, 30.0 min, 50.0 µM

First: N#Cc1nc(-c2cccc3ccccc23)oc1NCc1ccccc1
Second: N#Cc1nc(-c2cccc3ccccc23)oc1NC1COC1
The Papp of the first is lower: 229 nm/s for the first, > 10000 nm/s for the second.

Going from `CCn1cc(C(=O)O)c(=O)c2cnc(N3CCN(C(=S)Nc4ccccc4)CC3)nc21` to `COc1ccnc(NC(=S)N2CCN(c3ccc(Cl)c(Cl)c3)CC2)c1`, the Papp rises from 121 nm/s to 6010 nm/s.

First: CCCCC(C)/C=C(C)/C=C(\C)C(=O)NC1=CC(O)(/C=C/C=C/C=C/C(=O)NC2=C(O)CCC2=O)C2OC2C1=O (stereo not drawn)
Second: C[C@@H](O)CNC(C)(C)CC(=O)N[C@@H]1CCc2ccccc2N(Cc2ccc(-c3ccccc3-c3nn[nH]n3)cc2)C1=O
The Papp of the first is higher: 9550 nm/s for the first, < 10 nm/s for the second.

Compared with `O=C(Nc1ccc2oc(-c3cccnc3)nc2c1)c1ccc(-c2cccc(Cl)c2)o1`, `Fc1cc(Nc2nc(-c3ccncc3)nc3ccccc23)ccc1-c1cncnc1` is lower in Papp: 3100 nm/s for the first, 72.6 nm/s for the second.

Compared with `COC(=O)CNC(=O)c1nc(-c2ccc(Cl)cc2Cl)c2cnccn12`, `CN(C)C(=O)c1nc(-c2ccc(S(C)(=O)=O)cc2)c2cnccn12` is lower in Papp: > 10000 nm/s for the first, 168 nm/s for the second.

Compared with `COc1cc(-c2csc(N3CCC(C(N)=O)CC3)n2)cc(OC)c1OC`, `NC(=O)C1CCN(c2nc(-c3ccccc3Br)cs2)CC1` is higher in Papp: 2570 nm/s for the first, 4620 nm/s for the second.

Compared with `CCN(c1ccccc1)S(=O)(=O)c1c(C)nc2scc(C)n2c1=O`, `Cc1ccc(S(=O)(=O)Nc2ncccc2C(=O)Nc2nc(-c3ccccc3)cs2)cc1` is higher in Papp: 6150 nm/s for the first, 8140 nm/s for the second.

Compared with `CN1CCCC1CCOC(c1cc2nccc(C(=O)O)c2[nH]1)c1ccccc1Cl` (stereo not drawn), `Cc1ccc(-c2ccnc(N3CCC(C(N)=O)CC3)n2)cc1` is higher in Papp: 11 nm/s for the first, 5770 nm/s for the second.

Compared with `Cc1ccc(S(=O)(=O)Nc2cnccc2C(=O)Nc2nc(-c3cc(Br)cs3)cs2)cc1`, `Cc1ccc(S(=O)(=O)Nc2cc(Br)ccc2C(=O)Nc2nc(-c3ccccc3)cs2)cc1` is lower in Papp: 91 nm/s for the first, 77.1 nm/s for the second.

First: COCc1cc(C)nc(SCC(=O)c2ccc(O)c(O)c2)c1C#N
Second: CCc1oc2ccccc2c1C(=O)c1cc(I)c(O)c(I)c1
The Papp of the first is higher: 1180 nm/s for the first, 677 nm/s for the second.

`CCOc1ccc(CCNC(=O)c2ccnn2Cc2cccc(C)c2)cc1OCC` and `CCOc1ccc(CCNC(=O)c2cc3ccccc3n2C)cc1OCC` cannot be ordered by Papp: > 10000 nm/s for the first, > 10000 nm/s for the second.

First: Cc1cccc2c(C(=O)O)cc(-c3cccs3)nc12
Second: c1ccc2c(Nc3nccs3)nc(-c3ccncc3)nc2c1
The Papp of the first is lower: 188 nm/s for the first, 1500 nm/s for the second.

Going from `COc1ccc(-n2nc(C3CCN([S+](=O)([O-])c4cccc(C(F)(F)F)c4)CC3)[nH]c2=O)cc1` to `COc1ccc(-n2nc(C3CCCN(C(=O)Cc4ccc(F)cc4)C3)[nH]c2=O)cc1` (stereo not drawn), the Papp rises from 2420 nm/s to 8510 nm/s.

First: COc1ccc(CNc2ccc(S(=O)(=O)Nc3nccs3)cc2)c(O)c1
Second: Cc1cc(NS(=O)(=O)c2ccc(NCCc3ccc(Cl)c(Cl)c3)cc2)no1
The Papp of the first is lower: < 10 nm/s for the first, 4060 nm/s for the second.

First: Fc1ccc(-c2ccc(Nc3nc(-c4ccncc4)nc4ccccc34)cc2F)c(F)c1
Second: Cc1ccc(-c2cc(C(=O)Nc3ccc(S(=O)(=O)NCc4nccs4)cc3)c3ccccc3n2)cc1C
The Papp of the first is higher: 195 nm/s for the first, 60 nm/s for the second.

Going from `COc1cc2nc(N3CCCC3)nc(NCCCCCN3CCCC3)c2cc1OC` to `Cc1cc(C)nc(NC(=S)N2CCN(c3ccc(F)cc3F)CC2)c1`, the Papp rises from 24 nm/s to > 10000 nm/s.

Compared with `CCCSc1nc(N[C@@H]2C[C@H]2c2ccc(F)c(F)c2)c2nnn([C@@H]3C[C@H](OCCO)[C@@H](O)[C@H]3O)c2n1`, `CCC(CC)c1cc([C@H]2CN3CC[C@H]2C[C@@H]3CNC(C)=O)nc(-c2ccncc2)n1` is higher in Papp: 7760 nm/s for the first, 9940 nm/s for the second.

First: CCCN1CNc2c(c(=O)[nH]c(=S)n2CCc2cccc(Cl)c2Cl)C1
Second: CCCCOc1ccc(C(=O)N2CCC(c3n[nH]c(=O)n3-c3ccc(C)cc3)CC2)cc1
The Papp of the first is higher: > 10000 nm/s for the first, 8920 nm/s for the second.

Going from `CC1=Nc2cc(C(=O)NCc3ccccc3Cl)ccc2Sc2c(C)ccc(C)c21` to `Cc1cc(NS(=O)(=O)c2ccc(NC(=O)c3oc4ccccc4c3C)cc2)nc(C)n1`, the Papp rises from 1610 nm/s to 2820 nm/s.

First: CCc1nc2c(sc3nc4c(cc32)COC(C)(C)C4)c(=O)n1Cc1ccco1
Second: CCc1[nH]c2ccc(CNC(=O)Cc3cnc4c(C)cccn34)cc2c1C
The Papp of the first is higher: > 10000 nm/s for the first, 4050 nm/s for the second.

Going from `COc1ccc(-c2nc3ncccc3[nH]2)cc1` to `COc1ccc(C2=Nn3c(nnc3-c3ccncc3)SC2)cc1`, the Papp rises from 1390 nm/s to 2440 nm/s.

`Oc1ccc(-c2nc(C3CC3)nc3c2CCN(Cc2ccc(F)cc2)CC3)cc1` and `CCN1C(=O)c2ccccc2S(=O)c2ccc(NC(=O)Cc3ccc(F)cc3)cc21` (stereo not drawn) cannot be ordered by Papp: > 10000 nm/s for the first, > 10000 nm/s for the second.

Compared with `COc1ccccc1-c1[nH]nc2ncc(-c3ccc(C)cc3)nc12`, `Cc1ccc(S(=O)(=O)Nc2cnccc2C(=O)Nc2ccc(-c3nn[nH]n3)cc2)cc1` is lower in Papp: 762 nm/s for the first, 14 nm/s for the second.

Compared with `Cc1noc(C)c1-c1cc(-c2ccc3c(c2)C(=O)NC3)cn2cncc12`, `O=C1NCc2ccc(-c3cc4c(ccn4Cc4cccnc4)c(C4=CCOCC4)n3)cc21` is higher in Papp: 1430 nm/s for the first, 1750 nm/s for the second.

Compared with `CCOc1ccc(NC(=O)c2nc(S(=O)(=O)Cc3ccccc3F)ncc2Cl)cc1`, `NS(=O)(=O)c1ccc(NC(=O)c2cc3ncccn3n2)cc1` is lower in Papp: 8820 nm/s for the first, 825 nm/s for the second.

Going from `CC(C)(C)c1ccc(-c2ccc(=O)n(CC(=O)NCCc3ccccc3)n2)cc1` to `CC(=O)Nc1ccc(C(=O)Nc2ccc3c(c2)N(C2CCCC2)C(=O)c2ccccc2S3)cc1`, the Papp falls from > 10000 nm/s to 1380 nm/s.

With `Cc1ccc(C)c(CN2CCC(CNC(=O)Nc3ccc(Br)cc3F)CC2)c1` the Papp was > 10000 nm/s.
